T/C data for ten compounds are collected here from PubChem BioAssay AID328 (DTP/NCI, 2004).

Several values for one entry are separate records, joined by “and”; a condition that tells them apart may be missing. Equal entries are not always repeated. Inconclusive results and toxic doses are left out.

The experiment has as its system BDF1 mice, P388 leukemia ip, median survival T/C. The experiment in a line: NCI In Vivo Anticancer Drug Screen. Data for tumor model P388 Leukemia (intraperitoneal) in B6D2F1 (BDF1) mice. Conditions: endpoint: median survival time, higher = longer survival. The method, boiled down:
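Compound-treated tumour-bearing mice were compared with vehicle-treated controls. Survival was recorded, and the value is the treated-group measurement divided by the control-group measurement (T/C).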

[1] abbreviates: dose: 50.0 mg/kg/injection, schedule: Q01DX009 (ip), vehicle: saline with Tween-80.
Where [2] appears, read: dose: 100.0 mg/kg/injection, schedule: Q01DX009 (ip), vehicle: saline with Tween-80.
Where [3] appears, read: dose: 100.0 mg/kg/injection, schedule: Q04DX003 (ip), vehicle: saline with Tween-80.
Where [4] appears, read: dose: 200.0 mg/kg/injection, schedule: Q04DX003 (ip), vehicle: saline with Tween-80.
Setting [5] is: dose: 100.0 mg/kg/injection, schedule: Q01DX009 (ip), vehicle: Klucel (hydroxypropylcellulose) (HPC).
[6] abbreviates: dose: 100.0 mg/kg/injection, schedule: Q04DX003 (ip), vehicle: Klucel (hydroxypropylcellulose) (HPC).
[7] abbreviates: dose: 200.0 mg/kg/injection, schedule: Q01DX009 (ip), vehicle: Klucel (hydroxypropylcellulose) (HPC).
The mark [8] stands for this setting: dose: 200.0 mg/kg/injection, schedule: Q04DX003 (ip), vehicle: Klucel (hydroxypropylcellulose) (HPC).

With `CCCCCCC/C=N/N=C/CCCCCCC`, the T/C is 100 % of control (dose: 100.0 mg/kg/injection, schedule: Q01DX009 (ip), vehicle: other); 109 % of control (dose: 100.0 mg/kg/injection, schedule: Q04DX003 (ip), vehicle: other); 122 % of control (dose: 178.0 mg/kg/injection, schedule: Q01DX009 (ip), vehicle: other); 109 % of control (dose: 200.0 mg/kg/injection, schedule: Q04DX003 (ip), vehicle: other); 104 % of control (dose: 400.0 mg/kg/injection, schedule: Q01DX009 (ip), vehicle: other).

On to `O=S(=O)(CCBr)CCBr`, for which the T/C reads like this: under setting [1], 100 % of control; under setting [2], 104 % of control; under setting [3], 100 % of control; under setting [4], 100 % of control.

In the case of `c1ccc(CCSc2ncnc3nc[nH]c23)cc1`, the T/C (dose: 62.5 mg/kg/injection, schedule: Q01DX010 (ip), vehicle: saline) is 95 % of control and 104 % of control; the T/C (dose: 125.0 mg/kg/injection, schedule: Q01DX010 (ip), vehicle: saline) is 95 % of control and 100 % of control; the T/C (dose: 250.0 mg/kg/injection, schedule: Q01DX010 (ip), vehicle: saline) is 100 % of control; the T/C (dose: 500.0 mg/kg/injection, schedule: Q01DX010 (ip), vehicle: saline) is 86 % of control and 109 % of control.

For `CC(C)CNS(=O)(=O)c1ncnc2nc[nH]c12`, the T/C runs as follows: under setting [1], 109 % of control; under setting [2], 109 % of control.

Take `Cc1ccc(N=Cc2ccccc2)cc1`: the T/C under setting [5] is 95 % of control; the T/C under setting [6] is 100 % of control; the T/C under setting [7] is 100 % of control; the T/C under setting [8] was 108 % of control; the T/C (dose: 400.0 mg/kg/injection, schedule: Q01DX009 (ip), vehicle: Klucel (hydroxypropylcellulose) (HPC)) was 90 % of control; the T/C (dose: 400.0 mg/kg/injection, schedule: Q04DX003 (ip), vehicle: Klucel (hydroxypropylcellulose) (HPC)) was 108 % of control.

Consider `CC(=O)O/C(C#N)=C1\CCCC\C1=C(\C#N)OC(C)=O`, for which the T/C (dose: 25.0 mg/kg/injection, schedule: Q01DX001 (ip), vehicle: saline with Tween-80) is 103 % of control.

As to `CC1=Nc2ccccc2N=C(C)C1`, the T/C (dose: 25.0 mg/kg/injection, schedule: Q01DX009 (ip), vehicle: saline with Tween-80) was 100 % of control; the T/C (dose: 50.0 mg/kg/injection, schedule: Q01DX001 (ip), vehicle: saline with Tween-80) is 100 % of control; the T/C under setting [1] was 90 % of control; the T/C (dose: 100.0 mg/kg/injection, schedule: Q01DX001 (ip), vehicle: saline with Tween-80) is 104 % of control; the T/C under setting [2] was 109 % of control; the T/C under setting [3] was 100 % of control. The T/C was 100 % of control (dose: 150.0 mg/kg/injection, schedule: Q01DX009 (ip), vehicle: saline with Tween-80); 100 % of control (dose: 200.0 mg/kg/injection, schedule: Q01DX001 (ip), vehicle: saline with Tween-80); 100 % of control under setting [4].

In the case of `ClC1=C(Cl)C2(Cl)C3(Cl)C(Cl)=C(Cl)C(Cl)(C3c3ccccc3)C2(Cl)C1c1ccccc1` (stereo unspecified), the T/C under setting [2] is 95 % of control; the T/C (dose: 100.0 mg/kg/injection, schedule: Q04DX003 (ip), vehicle: saline sonified) is 100 % of control; the T/C (dose: 200.0 mg/kg/injection, schedule: Q01DX009 (ip), vehicle: saline with Tween-80) was 95 % of control; the T/C (dose: 200.0 mg/kg/injection, schedule: Q04DX003 (ip), vehicle: saline sonified) is 104 % of control; the T/C (dose: 400.0 mg/kg/injection, schedule: Q01DX009 (ip), vehicle: saline with Tween-80) was 95 % of control; the T/C (dose: 400.0 mg/kg/injection, schedule: Q04DX003 (ip), vehicle: saline sonified) was 90 % of control.

For the compound `CCCCN1C(=O)C2CC=C3C=CN4C(C3C2C1=O)C1C(=O)N(CCCC)C(=O)C1C41CC(=O)N(CCCC)C1=O` (stereo unspecified), the T/C is 104 % of control (dose: 50.0 mg/kg/injection, schedule: Q01DX009 (ip), vehicle: Klucel (hydroxypropylcellulose) (HPC)); 100 % of control under setting [5]; 100 % of control under setting [6]; 90 % of control under setting [7]; 91 % of control under setting [8].

Take `O=NN(CCCl)C(=O)Nc1ccc(CCO)cc1`: the T/C reads like this: (dose: 0.12 mg/kg/injection, schedule: Q04DX003 (ip), vehicle: saline) 100 % of control; (dose: 0.13 mg/kg/injection, schedule: Q01DX009 (ip), vehicle: Klucel (hydroxypropylcellulose) (HPC)) 112 % of control; (dose: 0.2 mg/kg/injection, schedule: Q01DX009 (ip), vehicle: Klucel (hydroxypropylcellulose) (HPC)) 91 % of control; (dose: 0.2 mg/kg/injection, schedule: Q01DX009 (ip), vehicle: alcohol) 100 % of control; (dose: 0.25 mg/kg/injection, schedule: Q04DX003 (ip), vehicle: saline) 104 % of control; (dose: 0.3 mg/kg/injection, schedule: Q01DX009 (ip), vehicle: alcohol) 108 % of control. Also, the T/C (dose: 0.5 mg/kg/injection, schedule: Q01DX009 (ip), vehicle: alcohol) is 150 % of control; the T/C (dose: 0.5 mg/kg/injection, schedule: Q01DX009 (ip), vehicle: other) was 181 % of control; the T/C (dose: 0.5 mg/kg/injection, schedule: Q04DX003 (ip), vehicle: saline + alcohol) was 155 % of control; the T/C (dose: 0.5 mg/kg/injection, schedule: Q04DX003 (ip), vehicle: saline) is 117 % of control; the T/C (dose: 1.0 mg/kg/injection, schedule: Q01DX009 (ip), vehicle: Klucel (hydroxypropylcellulose) (HPC)) was 150 % of control; the T/C (dose: 1.0 mg/kg/injection, schedule: Q01DX009 (ip), vehicle: alcohol) is 183 % of control. For the same compound, the T/C by setting is: (dose: 1.0 mg/kg/injection, schedule: Q01DX009 (ip), vehicle: other) 181 % of control; (dose: 1.0 mg/kg/injection, schedule: Q04DX003 (ip), vehicle: saline + alcohol) 188 % of control; (dose: 1.65 mg/kg/injection, schedule: Q01DX009 (ip), vehicle: Klucel (hydroxypropylcellulose) (HPC)) 200 % of control; (dose: 1.65 mg/kg/injection, schedule: Q01DX009 (ip), vehicle: saline) 266 % of control; (dose: 2.0 mg/kg/injection, schedule: Q01DX009 (ip), vehicle: alcohol) 237 % of control; (dose: 2.0 mg/kg/injection, schedule: Q01DX009 (ip), vehicle: other) 254 % of control. For the same compound, the T/C is, setting by setting: (dose: 2.0 mg/kg/injection, schedule: Q04DX003 (ip), vehicle: saline + alcohol) 255 % of control; (dose: 2.5 mg/kg/injection, schedule: Q01DX009 (ip), vehicle: Klucel (hydroxypropylcellulose) (HPC)) 257 % of control; (dose: 2.5 mg/kg/injection, schedule: Q01DX009 (ip), vehicle: saline with Tween-80) 240 % of control; (dose: 2.5 mg/kg/injection, schedule: Q01DX009 (ip), vehicle: saline) 333 % of control; (dose: 3.75 mg/kg/injection, schedule: Q01DX009 (ip), vehicle: Klucel (hydroxypropylcellulose) (HPC)) 289 % of control; (dose: 3.75 mg/kg/injection, schedule: Q01DX009 (ip), vehicle: saline) 333 % of control. Further, the T/C is 250 % of control (dose: 4.0 mg/kg/injection, schedule: Q01DX009 (ip), vehicle: alcohol); 272 % of control (dose: 4.0 mg/kg/injection, schedule: Q01DX009 (ip), vehicle: other); 322 % of control (dose: 4.0 mg/kg/injection, schedule: Q04DX003 (ip), vehicle: saline + alcohol); 270 % of control (dose: 5.0 mg/kg/injection, schedule: Q01DX009 (ip), vehicle: saline with Tween-80); 180 % of control (dose: 6.25 mg/kg/injection, schedule: Q01DX009 (ip), vehicle: saline); 272 % of control (dose: 6.25 mg/kg/injection, schedule: Q04DX003 (ip), vehicle: saline + alcohol). The T/C (dose: 10.0 mg/kg/injection, schedule: Q01DX009 (ip), vehicle: saline with Tween-80) is 110 % of control; the T/C (dose: 12.5 mg/kg/injection, schedule: Q01DX009 (ip), vehicle: saline) was 100 % of control; the T/C (dose: 12.5 mg/kg/injection, schedule: Q04DX003 (ip), vehicle: saline + alcohol) was 272 % of control; the T/C (dose: 25.0 mg/kg/injection, schedule: Q04DX003 (ip), vehicle: saline sonified) is 90 % of control.
